The test system of assay [1] is Female CFLP mice. As to the kind of experiment: Anti-hyperglycaemic activity: subcutaneous glucose load in fasted mice, area under blood glucose curve. It counts as in vivo. The note with it: glucose 1 g/kg sc, 2 hour period, vs water control. How it is done:
Female CFLP mice, each weighing approximately 25 g, were fasted for 24 hours prior to the study. The compounds under study were administered orally as an aqueous solution to each of 6 mice. 6 mice were given water as a control. 30 minutes later a blood sample (20 µl) was obtained from the tail for the analysis of blood glucose. Immediately after taking this blood sample, glucose (1 g/kg body weight) was administered subcutaneously to each mouse. Blood samples were then obtained from each mouse at 30 minute intervals for 120 minutes.
Compounds that produced a significant (P<0.05) reduction of blood glucose, compared with control mice given water, at any time interval, were considered active. The area under the blood glucose curve over the 2 hour period after the administration of the glucose was calculated for each compound and compared with the value for control animals.

Assay [2] relates to Female CFLP mice. The assay can be described thus: Effect on energy expenditure and food intake of mice. The format is in vivo. Particulars: Mus musculus; for response vs control in vivo at 21.8 mg/kg / response vs control in vivo at 30.2 mg/kg / response vs control in vivo at 26.9 mg/kg / response vs control in vivo at 24.6 mg/kg / response vs control in vivo at 24.2 mg/kg / response vs control in vivo at 26.4 mg/kg / response vs control in vivo at 22.7 mg/kg / response vs control in vivo at 22 mg/kg / response vs control in vivo at 26.3 mg/kg / response vs control in vivo at 28.9 mg/kg / response vs control in vivo at 23.4 mg/kg / response vs control in vivo at 19.2 mg/kg / response vs control in vivo at 29.5 mg/kg / response vs control in vivo at 27.3 mg/kg / response vs control in vivo at 25.5 mg/kg / response vs control in vivo at 22.6 mg/kg: po, 21 h; for response vs control in vivo at 23.1 mg/kg: 23.1 mg/kg po; for response vs control in vivo at 23.1 mg/kg / response vs control in vivo at 24.3 mg/kg / response vs control in vivo at 18.4 mg/kg: mice, 21 hours after dosing, % of mice dosed with water; for response vs control in vivo at 24.3 mg/kg: 24.3 mg/kg po; for response vs control in vivo at 18.4 mg/kg: 18.4 mg/kg po.
Protocol: Female CFLP mice each weighing approximately 24 g, were given food and water ad lib before and during the experiment. The compounds were dissolved in water by addition of one mole of hydrochloric acid per mole of compound and these solutions were administered orally to each of 12 mice. A further 12 mice were dosed orally with water. The mice were placed in boxes through which air was drawn and the oxygen content of the air leaving the boxes was measured. […] The food intake of the mice was measured over this same period of 21 hours. The results are expressed as a percentage of the mean food intake or rate of energy expenditure of the mice dosed with water.

Where [3] appears, read: read-out: Mean Energy Expenditure (%).

Where a name gives a salt, the structure may show the parent alone. Read-outs that look alike come from different tables or passages of the source.

With `CNCCOc1cccc(CC(C)NCC(O)c2cccc(Cl)c2)c1` (stereo not shown) [Example 29, N-[2-(3-(2-Methylaminoethoxy)phenyll-1-methylethyl]-2-hydroxy-2-(3-chlorophenyl)ethanaminedihydrochloride], the “Reduction in area under Blood glucose curve (%)” value (“Reduction in area … (%)” below) with Female CFLP mice [1] (12.5 μ moles/kg po) was 48%. The figures for the response vs control in vivo at 21.8 mg/kg with Female CFLP mice [2] (setting [3]) and with Female CFLP mice [2] (read-out: Mean Food Intake (%)) were 123% and 107%, respectively.

As to `Br.Br.CNCCOc1ccc(CC(C)NCC(O)c2cccc(Cl)c2)cc1F` (stereo not shown) [Example 5, N-[2-(3-Fluoro-4-(2-methylaminoethoxy)phenyl)-1-methylethyl)-2-hydroxy-2-(3-chlorophenyl) ethanamine dihydrobromide], the “Reduction in area … (%)” value with Female CFLP mice [1] (1 μ moles/kg po) is on record as 38%. Moreover, the values for the response vs control in vivo at 30.2 mg/kg with Female CFLP mice [2] (setting [3]) and with Female CFLP mice [2] (read-out: Mean Food Intake (%)) were 134% and 102%, respectively.

On to `CNCCOc1ccc(C[C@@H](C)NC[C@H](O)c2cccc(Cl)c2)cc1` [Example 28, N-[2-(4-(2-Methylaminoethoxy)phenyl)-1-methylethyl]-2-hydroxy-2-(3-chlorophenyl)ethanamine dihydrochloride - (RR,SS) diastereoisomer], for which the “Reduction in area … (%)” value in the assay on Female CFLP mice [1] (0.5 μ moles/kg po) was determined as 42%. For the same molecule, the response vs control in vivo at 21.8 mg/kg in the assay on Female CFLP mice [2] (setting [3]) amounted to 135%; with Female CFLP mice [2] (read-out: Mean Food Intake (%)), 108%.

As for `CC(Cc1ccc(OCCN2CCCCCC2)cc1)NCC(O)c1cccc(C(F)(F)F)c1` (stereo not shown) [Example 15, N-[2-(4-(2-(1-Homopiperidine)ethoxy)phenyl)-1-methylethyl]-2-hydroxy-2-(3-trifluoromethylphenyl)-ethanamine dihydrochloride], in the assay on Female CFLP mice [1] (1 μ moles/kg po), the “Reduction in area … (%)” value is listed as 17%. The results for the response vs control in vivo at 26.9 mg/kg in the assay with Female CFLP mice [2] (setting [3]) and in the assay on Female CFLP mice [2] (read-out: Mean Food Intake (%)) were 117% and 77%, respectively.

`CNCCOc1ccc(CC(C)NCC(O)c2cc3ccccc3o2)cc1.Cl.Cl` (stereo not shown) [Example 4, N-[2-(4-(2-Methylaminoethoxy)phenyl)-1-methylethyl]-2-hydroxy-2-(2-benzofuranyl) ethanamine dihydrochloride]: the “Reduction in area … (%)” value in the assay on Female CFLP mice [1] (2.5 μ moles/kg po) stood at 18%. In addition, the response vs control in vivo at 24.6 mg/kg in the assay on Female CFLP mice [2] (setting [3]) amounted to 110%; with Female CFLP mice [2] (read-out: Mean Food Intake (%)), 76%.

In the case of `CCNCCOc1ccc(CC(C)NCC(O)c2cccc(C(F)(F)F)c2)cc1` (stereo not shown) [Example 27, N-[2-(4-(2-Ethylaminoethoxy)phenyll-1-methylethyl]-2-hydroxy-2-(3-trifluoromethylphenyl)ethanaminedihydrochloride], the response vs control in vivo at 24.2 mg/kg came to 143% in the assay with Female CFLP mice [2] (setting [3]) and 100% with Female CFLP mice [2] (read-out: Mean Food Intake (%)).

Turning to `CC(Cc1ccc(OCCN2CCCCC2)cc1)NCC(O)c1cccc(C(F)(F)F)c1` (stereo not shown) [Example 26, N-[2-(4-(2-(1-Piperidine)ethoxy)phenyl)-1-methylethyl]-2-hydroxy-2-(3-trifluoromethylphenyl)ethanamine dihydrochloride monohydrate], the response vs control in vivo at 26.4 mg/kg with Female CFLP mice [2] (setting [3]) was 125%; with Female CFLP mice [2] (read-out: Mean Food Intake (%)), 63%.

With `CCN(CC)CCOc1ccc(CC(C)NCC(O)c2cccc(C(F)(F)F)c2)cc1.O=C(O)/C=C/C(=O)O` (stereo not shown) [Example 36, N-[2-(4-(2-Diethylaminoethoxy)phenyl)-1-methylethyl]-2-hydroxy-2-(3-trifluoromethylphenyl)ethanamine fumarate], the “Reduction in area … (%)” value in the assay with Female CFLP mice [1] (50 μ moles/kg po) is 56%. In addition, the response vs control in vivo at 22.7 mg/kg stood at 132% with Female CFLP mice [2] (setting [3]) and 78% in the assay with Female CFLP mice [2] (read-out: Mean Food Intake (%)).

`CNC(=O)NCCOc1ccc(CC(C)NCC(O)c2cccc(C(F)(F)F)c2)cc1` (stereo not shown) [Example 17, N-[2-(4-(2-Methylaminocarbonylaminoethoxy)phenyl)-1-methylethyl]-2-hydroxy-2-(3-trifluoromethylphenyl)ethanamine]: the response vs control in vivo at 22 mg/kg in the assay on Female CFLP mice [2] (setting [3]) is 114%; with Female CFLP mice [2] (read-out: Mean Food Intake (%)), 87%.

Consider `CNCCCCCCOc1ccc(CC(C)NCC(O)c2cccc(C(F)(F)F)c2)cc1` (stereo not shown) [Example 33, N-[2-(4-(6-Methylaminohexyloxy)phenyl)-1-methylethyl]-2-hydroxy-2-(3-trifluoromethylphenyl)-ethanamine dihydrochloride], for which the response vs control in vivo at 26.3 mg/kg in the assay with Female CFLP mice [2] (setting [3]) is 131%; with Female CFLP mice [2] (read-out: Mean Food Intake (%)) it was 80%.

For the molecule `Br.Br.CCc1cccc(C(O)CNC(C)Cc2ccc(OCCNC)cc2)c1` (stereo not shown) [Example 6, N-[2-(4-(2-Methylaminoethoxy)phenyl)-1-methylethyl]-2-hydroxy-2-(3-ethylphenyl)ethanamine dihydrobromide], in the assay with Female CFLP mice [1] (50 μ moles/kg po), the “Reduction in area … (%)” value is on record as 36.5%. Moreover, the response vs control in vivo at 28.9 mg/kg in the assay with Female CFLP mice [2] (setting [3]) amounted to 97%; in the assay on Female CFLP mice [2] (read-out: Mean Food Intake (%)) it was 98%.

Take `CCOC(=O)NCCOc1ccc(CC(C)NCC(O)c2cccc(Cl)c2)cc1` (stereo not shown) [Example 16, N-[2-(4-(2-Ethoxycarbonylamioethoxy)phenyl)-1-methylethyl]-2-hydroxy-2-(3-chlorophenyl)ethanamine]: the “Reduction in area … (%)” value in the assay with Female CFLP mice [1] (1 μ moles/kg po) was found to be 68%. For the same molecule, the response vs control in vivo at 23.4 mg/kg with Female CFLP mice [2] (setting [3]) was determined as 141%; with Female CFLP mice [2] (read-out: Mean Food Intake (%)), 91%.

As for `CN(C)CCOc1ccc(CCC(C)(C)NCC(O)c2ccccc2)cc1.Cl.Cl` (stereo not shown) [Example 35, N-[3-(4-(2-Dimethylaminoethoxy)phenyl)-1,1-dimethylpropyl]-2-hydroxy-2-phenylethanamine dihydrochloride], in the assay on Female CFLP mice [1] (250 μ moles/kg po), the “Reduction in area … (%)” value stood at 18%. In addition, the response vs control in vivo at 23.1 mg/kg was determined as 95% in the assay with Female CFLP mice [2] (setting [3]) and 83% with Female CFLP mice [2] (read-out: Mean Food Intake (%)).

Consider `CC(COc1ccc(CC(C)NCC(O)c2cccc(C(F)(F)F)c2)cc1)NCc1ccccc1` (stereo not shown) [Example 31, N-[2-(4-(2-Benzylaminopropoxy)phenyl)-1-methylethyl]-2-hydroxy-2-(3-trifluoromethylphenyl)ethanamine], for which the “Reduction in area … (%)” value in the assay with Female CFLP mice [1] (50 μ moles/kg po) is 45%. Also, the response vs control in vivo at 24.3 mg/kg amounted to 100% with Female CFLP mice [2] (setting [3]) and 59% in the assay on Female CFLP mice [2] (read-out: Mean Food Intake (%)).

Turning to `NCCOc1ccc(CCNCC(O)c2cccc(C(F)(F)F)c2)cc1` (stereo not shown) [Example 34, N-[2-(4-(2-Aminoethoxy)phenyl)ethyl]-2-hydroxy-2-(3-trifluoromethylphenyl)ethanamine], the response vs control in vivo at 18.4 mg/kg with Female CFLP mice [2] (setting [3]) is 117%; with Female CFLP mice [2] (read-out: Mean Food Intake (%)) it was 103%.

In the case of `CC(Cc1ccc(OCC#N)cc1)NCC(O)c1cccc(Cl)c1` (stereo not shown) [Example 38, N-[2-(4-Cyanomethoxylphenyl)-1-methylethyl]-2-hydroxy-2-(3-chlorophenyl)ethanamine], the “Reduction in area … (%)” value in the assay on Female CFLP mice [1] (0.5 μ moles/kg po) amounted to 63%. In addition, the response vs control in vivo at 19.2 mg/kg with Female CFLP mice [2] (setting [3]) was 132%; with Female CFLP mice [2] (read-out: Mean Food Intake (%)), 81%.

For `CC(Cc1ccc(OCCNCc2ccccc2)cc1)NCC(O)c1cccc(Cl)c1` (stereo not shown) [Example 13, N-[2-4-(2-Benzylaminoethoxy)phenyl)-1-methylethyl]-2-hydroxy-2-(3-chlorophenyl)ethanamine dihydrochloride monohydrate], the “Reduction in area … (%)” value in the assay on Female CFLP mice [1] (1 μ moles/kg po) was 62%. The response vs control in vivo at 29.5 mg/kg in the assay with Female CFLP mice [2] (setting [3]) is 139%; in the assay on Female CFLP mice [2] (read-out: Mean Food Intake (%)), 78%.

On to `CC(Cc1ccc(OCCN)cc1)NCC(O)c1cccc(C(F)(F)F)c1.Cl.Cl.O.O` (stereo not shown) [Example 19, N-[2-(4-(2-Aminoethoxy)phenyl)-1-methylethyl]-2-hydroxy-2-(3-trifluoromethylphenyl)ethanamine dihydrochloride, dihydrate], for which the “Reduction in area … (%)” value in the assay on Female CFLP mice [1] (1 μ moles/kg po) is on record as 46%. For the same molecule, the values for the response vs control in vivo at 27.3 mg/kg in the assay with Female CFLP mice [2] (setting [3]) and in the assay with Female CFLP mice [2] (read-out: Mean Food Intake (%)) were 135% and 94%, respectively.

In the case of `CC(Cc1ccc(OCCN2CCCC2)cc1)NCC(O)c1cccc(C(F)(F)F)c1` (stereo not shown) [Example 25, N-[2-(4-(2-11-Pyrrolidine)ethoxy)phenyl)-1-methylethyl]-2-hydroxy-2-(3-trifluoromethylphenyl)ethanamine dihydrochloride], the response vs control in vivo at 25.5 mg/kg with Female CFLP mice [2] (setting [3]) is 117%; in the assay with Female CFLP mice [2] (read-out: Mean Food Intake (%)), 87%.

Take `CC(Cc1ccc(OCCN2CCOCC2)cc1)NCC(O)c1cccc(C(F)(F)F)c1` (stereo not shown) [Example 30, N-[2-(4-(2-(1-Morpholine)ethoxy)phenyl)-1-methylethyl]-2-hydroxy-2-(3-trifluoromethylphenyl)ethanamine]: the results for the response vs control in vivo at 22.6 mg/kg in the assay on Female CFLP mice [2] (setting [3]) and with Female CFLP mice [2] (read-out: Mean Food Intake (%)) were 125% and 95%, respectively.

For `CNCCOc1ccc(CC(C)NCC(O)c2ccc(Cl)cc2)cc1` (stereo not shown) [Example 12, N-[2-(4-(2-Methylaminoethoxy)phenyl)-1-methylethyl]-2-hydroxy-2-(4-chlorophenyl)ethanamine dihydrochloride], the response vs control in vivo at 24.2 mg/kg in the assay on Female CFLP mice [2] (setting [3]) came to 120%; with Female CFLP mice [2] (read-out: Mean Food Intake (%)) it was 99%.

For the origin of these results see EP0070133B1, “Secondary phenylethanol amines, processes for their preparation and their pharmaceutical application” (priority 1981, dated 1983).
